# According to patent US9365588B2, “Benzoxazines as modulators of ion channels” (Vertex Pharmaceuticals Incorporated, priority 2011, dated 2016):
# pIC50: −log10 of the molar value.
# Target: human NaV 1.7 (Homo sapiens, UniProt Q15858)
# Experiment: E-VIPR optical membrane potential assay with electrical stimulation
# Format: cell-based
# Settings: sodium channel inhibition; read-out: Binned Activity Data (IC50)
# How it was run: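 Membrane-potential read-out: background-subtracted 460 nm/580 nm ratio during a 9 s current-controlled stimulus, 400 Hz scan. Before stimulation, NaV1.7-HEK cells carried coumarin/oxonol dye and compound (final DMSO 0.625%) for 20–35 min at room temperature; tetracaine 125 μM served as positive control.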
# Sequence of human NaV 1.7 (Q15858 whole entry): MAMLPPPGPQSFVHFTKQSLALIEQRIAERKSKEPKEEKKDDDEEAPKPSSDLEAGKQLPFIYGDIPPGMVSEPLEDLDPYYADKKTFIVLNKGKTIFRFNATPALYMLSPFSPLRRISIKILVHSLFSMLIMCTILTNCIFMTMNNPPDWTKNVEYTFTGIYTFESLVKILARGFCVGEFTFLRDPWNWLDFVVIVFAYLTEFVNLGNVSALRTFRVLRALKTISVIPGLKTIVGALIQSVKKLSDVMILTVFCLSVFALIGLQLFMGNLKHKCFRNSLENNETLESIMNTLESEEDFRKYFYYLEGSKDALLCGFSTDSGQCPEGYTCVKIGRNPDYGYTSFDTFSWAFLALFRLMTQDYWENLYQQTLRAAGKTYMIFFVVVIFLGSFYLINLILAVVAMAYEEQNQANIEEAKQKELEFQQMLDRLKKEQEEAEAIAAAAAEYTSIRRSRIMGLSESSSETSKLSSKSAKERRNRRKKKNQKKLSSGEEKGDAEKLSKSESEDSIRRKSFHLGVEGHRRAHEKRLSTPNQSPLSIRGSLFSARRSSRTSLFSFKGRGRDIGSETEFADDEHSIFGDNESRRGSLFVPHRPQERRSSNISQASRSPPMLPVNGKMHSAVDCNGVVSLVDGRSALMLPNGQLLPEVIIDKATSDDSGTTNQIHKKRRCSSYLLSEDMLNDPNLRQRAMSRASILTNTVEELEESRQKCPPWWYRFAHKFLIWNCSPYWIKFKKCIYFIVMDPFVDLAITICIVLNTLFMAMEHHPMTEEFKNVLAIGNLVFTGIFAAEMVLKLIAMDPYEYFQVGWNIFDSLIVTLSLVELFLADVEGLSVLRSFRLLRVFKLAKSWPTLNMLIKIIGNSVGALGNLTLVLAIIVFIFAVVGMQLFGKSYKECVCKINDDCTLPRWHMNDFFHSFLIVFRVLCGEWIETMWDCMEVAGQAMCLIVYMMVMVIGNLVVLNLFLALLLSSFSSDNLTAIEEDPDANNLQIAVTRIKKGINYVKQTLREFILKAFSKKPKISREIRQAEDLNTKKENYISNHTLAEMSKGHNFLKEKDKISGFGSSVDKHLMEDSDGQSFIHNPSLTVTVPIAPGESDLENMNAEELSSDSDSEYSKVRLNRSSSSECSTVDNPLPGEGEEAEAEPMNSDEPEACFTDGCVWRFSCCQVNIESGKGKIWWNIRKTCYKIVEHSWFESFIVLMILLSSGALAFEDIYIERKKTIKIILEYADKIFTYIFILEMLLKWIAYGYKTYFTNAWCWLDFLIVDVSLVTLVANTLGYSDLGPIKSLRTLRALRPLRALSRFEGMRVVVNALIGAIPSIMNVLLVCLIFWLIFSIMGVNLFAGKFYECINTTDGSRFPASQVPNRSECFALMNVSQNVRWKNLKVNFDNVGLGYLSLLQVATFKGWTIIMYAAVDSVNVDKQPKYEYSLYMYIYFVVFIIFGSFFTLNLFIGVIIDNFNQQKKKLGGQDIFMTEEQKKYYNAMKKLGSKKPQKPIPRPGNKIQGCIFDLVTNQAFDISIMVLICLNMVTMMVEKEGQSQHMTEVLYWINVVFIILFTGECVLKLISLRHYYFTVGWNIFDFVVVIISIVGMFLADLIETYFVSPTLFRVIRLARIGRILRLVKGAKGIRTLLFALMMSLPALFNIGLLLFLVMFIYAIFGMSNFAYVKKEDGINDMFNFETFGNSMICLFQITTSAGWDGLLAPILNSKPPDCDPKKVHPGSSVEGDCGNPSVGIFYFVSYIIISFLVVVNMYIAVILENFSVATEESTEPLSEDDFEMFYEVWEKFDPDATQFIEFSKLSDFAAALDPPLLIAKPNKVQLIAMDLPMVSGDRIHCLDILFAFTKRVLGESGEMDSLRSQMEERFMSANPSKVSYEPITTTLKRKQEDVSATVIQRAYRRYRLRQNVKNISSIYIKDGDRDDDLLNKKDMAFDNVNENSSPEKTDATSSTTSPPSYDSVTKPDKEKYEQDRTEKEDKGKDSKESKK
smiles,measurement,value
COc1cc(OC(C)C)ccc1C(=O)N1CCC2(CC1)Oc1ccccc1-c1c2cnn1C [Compound 694],pIC50,≥ 5.70
CCc1ccc(C(=O)N2CCC3(CC2)Oc2cc(Cl)ccc2-n2cccc23)cc1OC [Compound 697],pIC50,≥ 5.70
COc1cc(C(=O)N2CCC3(CC2)Oc2ccccc2-n2c(C#N)ccc23)ccc1C(C)(C)CO [Compound 698],pIC50,≥ 5.70
COc1c(F)cccc1C(=O)N1CCC2(CC1)Oc1ccccc1-c1c2cnn1C [Compound 699],pIC50,≥ 5.70
Cc1cc(C(=O)N2CCC3(CC2)Oc2ccccc2-c2c3cnn2C)ccc1O [Compound 700],pIC50,≥ 5.70
Cc1ccc(C(=O)N2CCC3(CC2)Oc2ccccc2-c2c3cnn2C)cc1C [Compound 701],pIC50,5.30 to 5.70
COc1c(C(=O)N2CCC3(CC2)Oc2ccccc2-c2c3cnn2C)ccc(F)c1F [Compound 702],pIC50,5.30 to 5.70
COc1cccc(OC)c1C(=O)N1CCC2(CC1)Oc1cc(Cl)ccc1-n1cccc12 [Compound 703],pIC50,≥ 5.70
Cn1ncc2c1-c1ccccc1OC21CCN(C(=O)c2ccc(OC(C)(C)C)cc2F)CC1 [Compound 704],pIC50,≥ 5.70
CC(C)n1ncc2c1-c1ccccc1OC21CCN(C(=O)c2ccccc2OC(F)F)CC1 [Compound 705],pIC50,≥ 5.70
COCCOc1cc(C(=O)N2CCC3(CC2)Oc2cc(Cl)ccc2-n2cccc23)ccn1 [Compound 706],pIC50,≥ 5.70
CCCOc1ccc(C(=O)N2CCC3(CC2)Oc2ccccc2-c2c3cnn2C)cc1C [Compound 709],pIC50,≥ 5.70
Cc1ccc(OC(C)C)c(C(=O)N2CCC3(CC2)Oc2ccccc2-c2c3cnn2C)c1 [Compound 710],pIC50,≥ 5.70
CC(C)C(O)c1ccc(C(=O)N2CCC3(CC2)Oc2ccccc2-c2c3cnn2C)cc1 (stereo not shown) [Compound 711],pIC50,≥ 5.70
CCc1ccc(C(=O)N2CCC3(CC2)Oc2cc(C(=O)NC)ccc2-n2cccc23)cc1OC [Compound 713],pIC50,≥ 5.70
CN(C)S(=O)(=O)c1ccc(C(=O)N2CCC3(CC2)Oc2ccccc2-c2c3cnn2C)cc1 [Compound 714],pIC50,5.30 to 5.70
COc1cc(C(=O)N2CCC3(CC2)Oc2ccccc2-c2c3cnn2C)ccc1C(C)(C)CO [Compound 716],pIC50,≥ 5.70
Cn1c(C(=O)N2CCC3(CC2)Oc2cc(Cl)ccc2-n2cccc23)cccc1=O [Compound 718],pIC50,5.30 to 5.70
CC(C)NS(=O)(=O)c1ccc(C(=O)N2CCC3(CC2)Oc2ccccc2-n2c(C#N)ccc23)cc1 [Compound 721],pIC50,≥ 5.70
CC(C)(O)c1ccc(C(=O)N2CCC3(CC2)Oc2ccccc2-n2c(C(F)(F)F)ccc23)cc1 [Compound 722],pIC50,≥ 5.70
COC(=O)C(C)(C)c1ccc(C(=O)N2CCC3(CC2)Oc2cc(Cl)ccc2-n2cccc23)cc1OC [Compound 723],pIC50,≥ 5.70
COc1cccc(C(=O)N2CCC3(CC2)Oc2cc(Cl)ccc2-n2cccc23)c1 [Compound 724],pIC50,≥ 5.70
COC[C@H](C)Oc1ccc(C(=O)N2CCC3(CC2)Oc2ccccc2-n2cccc23)cc1OC [Compound 725],pIC50,≥ 5.70
CC(C)(O)c1ccc(C(=O)N2CCC3(CC2)Oc2ncccc2-n2c(C(F)(F)F)ccc23)cc1 [Compound 726],pIC50,≥ 5.70
COc1cc(C(=O)N2CCC3(CC2)Oc2ccccc2-n2cccc23)ccc1OC(C)(C)C [Compound 727],pIC50,≥ 5.70
CCn1cccc(C(=O)N2CCC3(CC2)Oc2cc(Cl)ccc2-n2cccc23)c1=O [Compound 728],pIC50,≥ 5.70
COc1ccc(C(=O)N2CCC3(CC2)Oc2cc(Cl)ccc2-n2cccc23)c(OC(F)(F)F)c1 [Compound 729],pIC50,≥ 5.70
Cc1cc(C(=O)N2CCC3(CC2)Oc2ccccc2-n2c(C(F)(F)F)ccc23)ccc1O [Compound 732],pIC50,≥ 5.70
Cc1cc(C(=O)N2CCC3(CC2)Oc2ccccc2-n2c(CN)ccc23)ccc1OC(C)C [Compound 733],pIC50,5.30 to 5.70
COc1cc(OC(C)(C)C#N)ccc1C(=O)N1CCC2(CC1)Oc1ccccc1-c1c2cnn1C [Compound 734],pIC50,≥ 5.70
CCc1ccc(C(=O)N2CCC3(CC2)Oc2ccccc2-n2c(C)ccc23)cc1OC [Compound 735],pIC50,≥ 5.70
COc1ccc(C(=O)N2CCC3(CC2)Oc2cc(Cl)ccc2-n2cccc23)cc1S(N)(=O)=O [Compound 736],pIC50,< 5.30
Cc1cc(C(=O)N2CCC3(CC2)Oc2cc(Cl)ccc2-n2cccc23)ccc1OC(C)C [Compound 737],pIC50,≥ 5.70
CCOc1cccc(C(=O)N2CCC3(CC2)Oc2ccccc2-c2c3cnn2C)c1F [Compound 738],pIC50,5.30 to 5.70
COc1cccc(F)c1C(=O)N1CCC2(CC1)Oc1cc(Cl)ccc1-n1cccc12 [Compound 739],pIC50,≥ 5.70
Cn1cc2c(n1)-c1ccccc1OC21CCN(C(=O)c2ccccc2OC(F)F)CC1 [Compound 740],pIC50,≥ 5.70
Cn1ccc(C(=O)N2CCC3(CC2)Oc2cc(Cl)ccc2-n2cccc23)cc1=O [Compound 741],pIC50,5.30 to 5.70
CCn1ncc2c1-c1cc(F)ccc1OC21CCN(C(=O)c2ccc(OC(C)C)c(OC)c2)CC1 [Compound 742],pIC50,5.30 to 5.70
CC[C@H](C)Oc1ccc(C(=O)N2CCC3(CC2)Oc2ccccc2-n2cccc23)cc1C#N [Compound 744],pIC50,≥ 5.70
Cc1cc(C(=O)N2CCC3(CC2)Oc2ccccc2-c2c3cnn2C)cc(C)c1OC(C)C [Compound 745],pIC50,≥ 5.70
Cc1c(CO)cccc1C(=O)N1CCC2(CC1)Oc1ccccc1-c1c2cnn1C [Compound 746],pIC50,5.30 to 5.70
COc1cc(C(=O)N2CCC3(CC2)Oc2ccccc2-c2nn(C)cc23)cc(OC)c1OC [Compound 747],pIC50,< 5.30
COc1cccc(OC)c1C(=O)N1CCC2(CC1)Oc1ccccc1-c1c2cnn1C [Compound 748],pIC50,5.30 to 5.70
Cc1cc(C(=O)N2CCC3(CC2)Oc2ccccc2-c2c3cnn2C)ccc1C(C)(C)O [Compound 750],pIC50,≥ 5.70
COc1cc(C(=O)N2CCC3(CC2)Oc2cc(Cl)ccc2-n2cccc23)ccc1OC[C@@H]1COC(C)(C)O1 [Compound 751],pIC50,≥ 5.70
O=C(c1ccccc1OC(F)F)N1CCC2(CC1)Oc1ccccc1-c1nn(C(F)(F)F)cc12 [Compound 752],pIC50,≥ 5.70
COc1cc(C(=O)N2CCC3(CC2)Oc2ccccc2-c2nn(C)cc23)ccc1C(C)(C)C [Compound 754],pIC50,< 5.30
COc1cc(C(=O)N2CCC3(CC2)Oc2ccccc2-n2c(C#N)ccc23)ccc1OCC(C)C [Compound 755],pIC50,≥ 5.70
COc1cc(C(=O)N2CCC3(CC2)Oc2ccccc2-c2c3cnn2C)ccc1OC(C)(C)C#N [Compound 758],pIC50,≥ 5.70
COc1cc(C(=O)N2CCC3(CC2)Oc2cc(Cl)ccc2-n2cccc23)ccc1OC[C@H]1COC(C)(C)O1 [Compound 759],pIC50,≥ 5.70
COCCOc1ccc(C(=O)N2CCC3(CC2)Oc2ccccc2-c2c3cnn2C)cc1C [Compound 761],pIC50,≥ 5.70
CC(C)(O)c1ccc(C(=O)N2CCC3(CC2)Oc2ccccc2-n2c(C#N)ccc23)cc1 [Compound 762],pIC50,≥ 5.70
COc1cccc(F)c1C(=O)N1CCC2(CC1)Oc1ccccc1-c1c2cnn1C [Compound 763],pIC50,5.30 to 5.70
CCCOc1ccc(C(=O)N2CCC3(CC2)Oc2ccccc2-n2cccc23)cc1C [Compound 764],pIC50,≥ 5.70
Cc1[nH]c2c(C(=O)N3CCC4(CC3)Oc3ccccc3-c3c4cnn3C)cccc2c1C [Compound 765],pIC50,≥ 5.70
Cn1cc2c(n1)-c1ccccc1OC21CCN(C(=O)c2ccc(S(=O)(=O)NC3CC3)cc2)CC1 [Compound 767],pIC50,≥ 5.70
COc1cc(C(=O)N2CCC3(CC2)Oc2ccccc2-n2c3ccc2S(C)(=O)=O)ccc1OC(C)C [Compound 768],pIC50,≥ 5.70
CCOc1c(F)cccc1C(=O)N1CCC2(CC1)Oc1ccccc1-n1c(C#N)ccc12 [Compound 769],pIC50,≥ 5.70
CC(C)Oc1cccc(C(=O)N2CCC3(CC2)Oc2ccccc2-n2c(C#N)ccc23)c1F [Compound 770],pIC50,≥ 5.70
Cn1ncc2c1-c1ccccc1OC21CCN(C(=O)c2ccccc2OCCO)CC1 [Compound 771],pIC50,≥ 5.70
COc1cc(C(=O)N2CCC3(CC2)Oc2cc(F)ccc2-n2cccc23)ccc1OCC(N)=O [Compound 772],pIC50,≥ 5.70
Cc1ccc(C(=O)N2CCC3(CC2)Oc2ccccc2-c2c3cnn2C)c(Cl)c1 [Compound 773],pIC50,≥ 5.70
COc1ccc(C(=O)N2CCC3(CC2)Oc2ccccc2-c2c3cnn2C)c(C)c1 [Compound 774],pIC50,≥ 5.70
O=C(c1ccc(OC2COC2)c(F)c1)N1CCC2(CC1)Oc1cc(Cl)ccc1-n1cccc12 [Compound 777],pIC50,≥ 5.70
O=C(c1ccc(S(=O)(=O)C(F)F)cc1)N1CCC2(CC1)Oc1ccccc1-n1c(C(F)(F)F)ccc12 [Compound 778],pIC50,≥ 5.70
CC(c1ccc(C(=O)N2CCC3(CC2)Oc2ccccc2-n2c(C#N)ccc23)cc1)S(C)(=O)=O (stereo not shown) [Compound 781],pIC50,5.30 to 5.70
Cc1cc(S(C)(=O)=O)ccc1C(=O)N1CCC2(CC1)Oc1ccccc1-n1c(C#N)ccc12 [Compound 784],pIC50,≥ 5.70
COc1cc(C(=O)N2CCC3(CC2)Oc2ccccc2-c2c3cnn2CC(F)(F)F)ccc1OCCC(C)C [Compound 785],pIC50,≥ 5.70
CC(C)Oc1ccc(C(=O)N2CCC3(CC2)Oc2ccccc2-c2c3cnn2C)c(OC(C)C)c1 [Compound 788],pIC50,≥ 5.70
N#Cc1ccc2n1-c1ccccc1OC21CCN(C(=O)c2ccc(OC[C@H](O)CO)cc2)CC1 [Compound 789],pIC50,< 5.30
O=C(c1ccccc1O)N1CCC2(CC1)Oc1cc(Cl)ccc1-n1cccc12 [Compound 790],pIC50,≥ 5.70
COCCOc1ccc(C(=O)N2CCC3(CC2)Oc2ccccc2-n2cccc23)cc1OC [Compound 791],pIC50,≥ 5.70
Cc1cc(C(=O)N2CCC3(CC2)Oc2cc(Cl)ccc2-n2cccc23)ccc1C(C)(C)O [Compound 792],pIC50,≥ 5.70
Cc1ccc(C(=O)N2CCC3(CC2)Oc2ccccc2-n2c3ccc2S(C)(=O)=O)cc1Cl [Compound 793],pIC50,≥ 5.70
O=C(c1ccc(S(=O)(=O)CCO)cc1)N1CCC2(CC1)Oc1ccccc1-n1c(C(F)(F)F)ccc12 [Compound 794],pIC50,< 5.30
Cc1cc(C(C)(C)O)ccc1C(=O)N1CCC2(CC1)Oc1ccc(F)cc1-c1nn(C)cc12 [Compound 796],pIC50,≥ 5.70
